These results are taken from ChEMBL document CHEMBL3507680, “University of Dundee, Gates Library screen for HepG2 cell viability”.

Structures are written as SMILES.

The data set can be described thus: Human HepG2 cell viability assay in 384 well format. It is filed as toxicity, cell-based. The conditions noted are these: HepG2 cells, read-out: Inhibition. More on the design: dose 125 nL, time 70.5 hour; cytotoxicity at 70.5 h: concentration not given beside the values.
As for `CS(=O)(=O)NCC1CCCCN1C(=O)c1ccsc1` (stereo unspecified), the cytotoxicity at 70.5 h is -2.66%.

Take `Cn1nnnc1SCCNC(=O)C1CCN(C(=O)C2CCCC2)CC1`: the cytotoxicity at 70.5 h was -5.48%.

Consider `Cc1ccccc1Oc1ncccc1CNS(=O)(=O)N(C)C`, for which the cytotoxicity at 70.5 h is -1.73%.

`CCSCCNC(=O)Nc1cc(C(=O)N2CCOCC2)ccc1Cl`: the cytotoxicity at 70.5 h was -3.96%.

Regarding `Cn1cc(C(=O)N2CC[C@@]3(O)CCN(C(=O)C4CCC4)C[C@H]3C2)cn1`, the cytotoxicity at 70.5 h was found to be 3.54%.

For `CNC(=O)NC(=O)C(C)N1CCN(c2ccc(C#N)cc2F)CC1` (stereo unspecified), the cytotoxicity at 70.5 h is -12.9%.

Regarding `COCCCN1CC2(CCC1=O)CCN(Cc1cc(C(C)C)no1)CC2`, the cytotoxicity at 70.5 h stood at 29.5%.

With `CCOc1ccc(OCCN2CCC(N3CCNC3=O)CC2)cc1`, the cytotoxicity at 70.5 h was 19%.

As to `O=C(CCc1ccsc1)N1CCC(Nc2cccnn2)CC1`, the cytotoxicity at 70.5 h was -3.07%.

`Cc1cc(NCCNc2ccc(C#N)cn2)nc(C)n1`: the cytotoxicity at 70.5 h was -6.84%.

Consider `Cc1nc(C(C)C)ncc1C(=O)N1CCC(c2ccccc2C(=O)O)C1` (stereo unspecified), for which the cytotoxicity at 70.5 h was -3.24%.

For the molecule `Cn1ccnc1CN1CCC2(CC(=O)N(c3ccsc3)C2)C1` (stereo unspecified), the cytotoxicity at 70.5 h was -8.8%.

For the molecule `Cn1nc(C(C)(C)C)cc1NC(=O)Cn1ccnc1`, the cytotoxicity at 70.5 h is -10.5%.

For the molecule `Cc1cnn(CC2CCCN2CC(=O)N(C)Cc2ccsc2)c1` (stereo unspecified), the cytotoxicity at 70.5 h was -2.74%.

As to `CN(C)c1ccc(NC(=O)NCC2CCOC2)cn1` (stereo unspecified), the cytotoxicity at 70.5 h was -9.11%.

Take `CC(C)N1CCC(N2CCN(C3CCCCC3)CC2CCO)CC1` (stereo unspecified): the cytotoxicity at 70.5 h was -10.5%.

With `Cc1cc(C2CCCN(S(=O)(=O)c3cn(C)cn3)C2)ccn1` (stereo unspecified), the cytotoxicity at 70.5 h is -5.97%.

In the case of `CC(C)c1noc(CS(=O)(=O)CC(=O)NCCOc2ccccc2)n1`, the cytotoxicity at 70.5 h is -13.7%.

In the case of `COc1ccc(S(=O)(=O)NC(=O)c2cscn2)cc1C`, the cytotoxicity at 70.5 h is -13.6%.

On to `CN(Cc1ccc(Cl)s1)C(=O)NCc1nnc2n1CCC2`, for which the cytotoxicity at 70.5 h stood at 2.59%.

On to `CCc1cc(=O)[nH]c(NC2CCN(S(=O)(=O)c3ccccc3)CC2)n1`, for which the cytotoxicity at 70.5 h is -7.53%.

With `O=C(NCCN1CCOCC1)c1cnc(Cc2ccc(F)cc2)s1`, the cytotoxicity at 70.5 h is -8.24%.

Regarding `O=C(CCc1ccc(Br)cc1F)NS(=O)(=O)c1ccc2c(c1)OCCO2`, the cytotoxicity at 70.5 h is -3.13%.

As to `CC(=O)Nc1nc(C(=O)NC(C)c2ccc(F)c(F)c2)cs1` (stereo unspecified), the cytotoxicity at 70.5 h is -7.42%.

Consider `CCC(=O)N1CCC(O)(c2ncc(OC)nc2OC)CC1`, for which the cytotoxicity at 70.5 h is -12.8%.

`Cc1cc(CN2C[C@@H]3COC[C@]3(CNC(=O)N3CCCC3)C2)no1`: the cytotoxicity at 70.5 h was 0.0997%.

As for `Cn1nc(CN2CCCC2)c2c1CN(c1cnccn1)CC2`, the cytotoxicity at 70.5 h was -3.39%.

As for `NC(=O)NCCC(=O)NCc1cccnc1N1CCc2ccccc2C1`, the cytotoxicity at 70.5 h was -11.6%.

As to `CC1CN(Cc2noc(C3CC3)n2)CCN1Cc1noc(C2CC2)n1` (stereo unspecified), the cytotoxicity at 70.5 h was -13.7%.

As to `CCOc1ccc2oc(-c3cn(C)nc3C)c(O)c(=O)c2c1`, the cytotoxicity at 70.5 h turned out to be 32.5%.

As for `CC(C)Oc1ncccc1CNC(=O)N1CCCC1c1ccsc1` (stereo unspecified), the cytotoxicity at 70.5 h was -0.144%.

As to `CCC(O)CN1CCN(C(=O)c2ccn(-c3cccc(F)c3)n2)CC1` (stereo unspecified), the cytotoxicity at 70.5 h was -5.3%.

`O=C(N[C@@H]1CN(c2ncccn2)[C@@H]2CCCO[C@@H]21)c1cscn1`: the cytotoxicity at 70.5 h came out at 20.2%.

For the molecule `CN(C)[C@@H]1CO[C@H](CNC(=O)Nc2ccccc2)[C@H]1O`, the cytotoxicity at 70.5 h was -1.04%.

As for `CC(C)NC(=O)CNC(=O)C12CCC(=O)N1c1cc(Cl)ccc1S2` (stereo unspecified), the cytotoxicity at 70.5 h was -0.426%.

For the molecule `Cc1ccc(Cc2sc(NC(=O)C(C)S(C)(=O)=O)nc2C)cc1` (stereo unspecified), the cytotoxicity at 70.5 h is -3.98%.

In the case of `O=c1cc(Cn2cncn2)nc2n1CCCN(CC1CCOCC1)C2`, the cytotoxicity at 70.5 h was -3.57%.

Turning to `CCC(Nc1cccc(OC)c1)C(=O)NCc1ccc2[nH]c(=O)[nH]c2c1` (stereo unspecified), the cytotoxicity at 70.5 h was -11.6%.

Consider `c1cc(CNCCc2cn3ccccc3n2)c2c(c1)OCCCO2`, for which the cytotoxicity at 70.5 h was -6.72%.

`COc1ccc(Cn2c(C3CCNCC3)cc3cccnc32)cc1`: the cytotoxicity at 70.5 h came out at 3.16%.

Regarding `CCN1CCOC(CNCc2ccc(OC)c(F)c2)C1` (stereo unspecified), the cytotoxicity at 70.5 h is -6.46%.

On to `COCC1CC2(CCN(C(=O)C3CCSCC3)CC2)CO1` (stereo unspecified), for which the cytotoxicity at 70.5 h worked out at 8.61%.

In the case of `CCCNC(=O)NCc1cccnc1OC`, the cytotoxicity at 70.5 h is -5.64%.

`CCn1cnnc1C1CCN(C(=O)c2cc3c(s2)CCC3)CC1`: the cytotoxicity at 70.5 h is -12.3%.

For the molecule `CC(C)N(Cc1ccccn1)C(=O)CN(C)C(=O)c1cccs1`, the cytotoxicity at 70.5 h was -22.7%.

For `Cc1nn(C)c(C)c1NC(=O)CN1CCOC(CN(C)C)C1` (stereo unspecified), the cytotoxicity at 70.5 h was determined as 5.23%.

As to `CC(=O)N1CCc2nc(-c3ccccc3)nc(NC(C)C)c2CC1`, the cytotoxicity at 70.5 h is -13.5%.

Take `Cc1nccnc1C1CCN(C2CCCC2O)CC1` (stereo unspecified): the cytotoxicity at 70.5 h was -0.726%.

For `CCCn1cnnc1-c1nc2c([nH]1)CC(c1ccc(Cl)cc1)CNC2=O` (stereo unspecified), the cytotoxicity at 70.5 h was 8.16%.

Regarding `Cc1cnc(-c2nc(NC3CC3)ncc2-c2onc(C)c2C)cn1`, the cytotoxicity at 70.5 h is -4.72%.

For `COc1cc2c(cc1CNC(=O)Cc1ccc(C)nc1)OC(C)C2` (stereo unspecified), the cytotoxicity at 70.5 h was -6.1%.

As for `CC(=O)Nc1nc(C(=O)NCc2ccc(N3CCCCCC3)nc2)cs1`, the cytotoxicity at 70.5 h was found to be 7.57%.

Consider `Cc1noc(C)c1CS(=O)(=O)CC(=O)N1CCc2sccc2C1`, for which the cytotoxicity at 70.5 h is -3.02%.

`CC(C)Oc1cccc(CN2CCC(c3n[nH]c4ncccc34)CC2)c1`: the cytotoxicity at 70.5 h worked out at 30.6%.

With `COC(=O)c1cccc(CNC(=O)CC(F)(F)F)c1`, the cytotoxicity at 70.5 h was -5.17%.

Turning to `N#CC(NC(=O)CCC1CCC1)c1cnn(-c2ccccc2)c1` (stereo unspecified), the cytotoxicity at 70.5 h was 17.3%.

`O=C(NCc1ccc(CN2CCCC2)cc1)NCc1ccon1`: the cytotoxicity at 70.5 h is -3.38%.

Consider `Cc1noc(C[C@@H]2COC[C@H]3CN(S(C)(=O)=O)C[C@@H]23)n1`, for which the cytotoxicity at 70.5 h was -5.3%.

Turning to `CCn1nccc1CNC(=O)C1CCC1`, the cytotoxicity at 70.5 h is -2.95%.

For the molecule `Cc1noc(Cl)c1CCC(=O)N1CCN(c2ccccc2)CC1`, the cytotoxicity at 70.5 h amounted to 7.33%.

Turning to `COc1ccc(CN2CCC(O)CC2)c(OC)c1`, the cytotoxicity at 70.5 h was -6.19%.

`CSCc1cccc(S(=O)(=O)NCc2cnn(C)c2C)c1`: the cytotoxicity at 70.5 h was -2.3%.

`CN(Cc1cc(-c2ccccc2)no1)C1CCCN(c2cccnn2)C1` (stereo unspecified): the cytotoxicity at 70.5 h is -13.5%.

Consider `Cn1cc(C2CCCN2CC(=O)N(CCC#N)Cc2ccco2)cn1` (stereo unspecified), for which the cytotoxicity at 70.5 h worked out at 2%.

Take `Cc1ccc(SC2CCCC2)c(C(=O)NCCO)c1`: the cytotoxicity at 70.5 h was -23.4%.

`CSc1ccc(C(CNC(=O)C2CC2)N2CCc3sccc3C2)cc1` (stereo unspecified): the cytotoxicity at 70.5 h was -2.83%.

`Cc1ccccc1C(O)c1ccncc1` (stereo unspecified): the cytotoxicity at 70.5 h is -8.85%.

As to `O=C1CC(c2ccncc2)C2(CCN(CCO)CC2)N1` (stereo unspecified), the cytotoxicity at 70.5 h is -10.4%.

As to `CNC(=O)NC(=O)C(C)N1CCCc2cc(OC)ccc2C1` (stereo unspecified), the cytotoxicity at 70.5 h is -13.9%.

Consider `O=C(O)C1(Cc2cccc(-c3cccs3)c2)CCCNC1` (stereo unspecified), for which the cytotoxicity at 70.5 h worked out at 14.3%.

As for `N#Cc1cc(S(N)(=O)=O)ccc1NC1CCc2c(F)cccc21` (stereo unspecified), the cytotoxicity at 70.5 h is -10.4%.

For the molecule `Cn1cc(C#N)cc1C(=O)Nc1ccc(CN2CCOCC2)cn1`, the cytotoxicity at 70.5 h was -2.71%.

For `CCCNc1cc(C(=O)N2CCOCC2)nc(C)n1`, the cytotoxicity at 70.5 h was -4.28%.

With `CN1CCN(c2ccc(F)cc2NC(=O)NCc2ccon2)CC1`, the cytotoxicity at 70.5 h amounted to 0.112%.

Regarding `COc1ccc(C2=NOC(CC#N)C2)cc1` (stereo unspecified), the cytotoxicity at 70.5 h is -1.51%.

Take `Cc1cc(C(=O)N(C)Cc2cccs2)nc(N2CCOCC2)n1`: the cytotoxicity at 70.5 h is -0.782%.

With `CN(C)[C@@H]1CCN(c2ncc(F)cn2)[C@H]1Cc1ccccc1`, the cytotoxicity at 70.5 h was -4.36%.

With `O=C(CN1C=Nc2ccccc2S1(=O)=O)NCC1CC1`, the cytotoxicity at 70.5 h is -7.99%.

As to `COC(=O)CCNC(=O)c1cccc(C(=O)N(C)c2ccccc2)c1`, the cytotoxicity at 70.5 h is 31.4%.

In the case of `O=C(c1ccc(-n2ccnc2)cc1)N1CCN(c2cnccn2)CC1`, the cytotoxicity at 70.5 h was determined as 2.67%.

Consider `Cc1nc(CNC(=O)Nc2cc(C(F)(F)F)c[nH]c2=O)cs1`, for which the cytotoxicity at 70.5 h was 1.62%.

`Cc1ncc2c(n1)CN(CC(=O)Nc1c(C)nn(C)c1C)CC2`: the cytotoxicity at 70.5 h is -1.17%.

As for `Cn1nccc1-c1ccc2nc(C3CCN(CC4CC4)CC3)nn2c1`, the cytotoxicity at 70.5 h was -12.2%.

On to `N#Cc1ccc(CN2C(=O)c3ccccc3CS2(=O)=O)cc1`, for which the cytotoxicity at 70.5 h was -1.6%.

`CC(=O)N1N=C(c2ccco2)OC1C(=O)NCCc1ccc(O)cc1` (stereo unspecified): the cytotoxicity at 70.5 h is -2.51%.

For the molecule `CCNc1ncc(C(=O)N(C)CCc2nc3cc(Cl)ccc3[nH]2)cn1`, the cytotoxicity at 70.5 h was -16.7%.

As for `CN1CCOC[C@H]1c1nc(-c2cccnc2)c[nH]1`, the cytotoxicity at 70.5 h is -7.84%.

As for `Cc1cc(N(C)C)nc(N2CCn3c(C)nnc3C2)n1`, the cytotoxicity at 70.5 h was -17.7%.

On to `CCCc1nnsc1C(=O)NCC(O)c1ccoc1` (stereo unspecified), for which the cytotoxicity at 70.5 h was -11.2%.

As to `CCn1cc(S(=O)(=O)N2CCCCCC2c2cc(C)on2)cn1` (stereo unspecified), the cytotoxicity at 70.5 h was 2.09%.

With `Cc1cnn(C2CN(CCOc3cccc(C#N)c3)C2)c1`, the cytotoxicity at 70.5 h is -5.43%.

As to `Cc1cccc(CC(=O)N2CCN(c3nccn3C)CC2)c1`, the cytotoxicity at 70.5 h was -1.55%.

Turning to `CC1CCc2nc(O)c(C(=O)NCc3ccccc3F)cc2C1` (stereo unspecified), the cytotoxicity at 70.5 h turned out to be 7.1%.

For `CCC(=O)N1CCC2(CC1)CC(N1CCOCC1)c1cc(C)ccc12` (stereo unspecified), the cytotoxicity at 70.5 h was -13.5%.

In the case of `COc1ccc(CNC(C)Cn2cccn2)cc1F` (stereo unspecified), the cytotoxicity at 70.5 h is -1.59%.

For `CC(C)Oc1cc(N2CCC(C(N)=O)CC2)nc(N)n1`, the cytotoxicity at 70.5 h is -3.58%.

`CN(C)c1ccc(-c2cc(C(=O)O)cc(S(=O)(=O)NC3CC3)c2)cc1`: the cytotoxicity at 70.5 h was -12.9%.

Take `CCn1cc(C(=O)N2CCCC(c3[nH]ncc3S(C)(=O)=O)C2)cn1` (stereo unspecified): the cytotoxicity at 70.5 h is -8.2%.

As to `COc1cc(N2CCCC3(CCN(c4cccnc4)C3=O)C2)ncn1` (stereo unspecified), the cytotoxicity at 70.5 h turned out to be 19.9%.

As for `CN1CCN(CCCNC(=O)CCc2nc3cc(Br)cnc3[nH]2)CC1`, the cytotoxicity at 70.5 h was -31%.

On to `COc1cc(NC(=O)c2ccc(F)cc2Cl)c(C(=O)N(C)C)cc1OC`, for which the cytotoxicity at 70.5 h is -8.85%.
